The results in this text go back to patent US12070037B2, “Methods and compositions for bioprotection of potatoes from Streptomyces scabies” (THE ROYAL INSTITUTION FOR THE ADVANCEMENT OF …, priority 2018, dated 2024).

For the experiment, the system named is Streptomyces scabies. The experiment can be described thus: agar well diffusion assay. The class given is cell-based. The method, then:
In addition, the antimicrobial activity of the crude extracts from Bacillus pumilus and Bacillus subtilis was assessed via agar well diffusion assay. A spore suspension of Streptomyces scabies was overlaid on PDA and the plates were allowed to air dry. A 50 μL drop of crude extracts from Bacillus pumilus (top), Bacillus pumilus (right), and Bacillus subtilis (left) were poured into agar well and a control solution was pour on the bottom of the agar well.
The concentrated material (crude extract) in the vessel was suspended in 10% acetonitrile (AcN/H2O, v/v) and frozen at −20° C. until further analysis. The crude extract was centrifuged (Sorvall Biofuge Pico, Mandel Scientific, ON, Canada) at 13,000 rpm for 30 min to remove insoluble particles. The supernatant was filter sterilized (PVDF, […], Fisher Scientific, Montreal, Canada) and tested for biological activity against Streptomyces scabies. The filtered extract was then loaded onto a C18 column (Restek™, Fisher Scientific, Montreal, Canada) and eluted with 20 mL of 10%, 20%, 40%, 60%, 80% and 100% acetonitrile and the fractions were collected. The eluted fractions under various concentrations of acetonitrile were lyophilized (SNL216V, Savant Instruments Inc., NY, USA), suspended in sterilized distilled water and tested for biological activity against Streptomyces scabies. The fraction showing an inhibition zone against Streptomyces scabies was selected for further fractionation by HPLC. The active fraction was stored in sterilized vials at 4° C. prior to HPLC analysis.
The antimicrobial activities of Micrococcin P1 at various concentrations were assessed via agar well diffusion assay. A spore suspension of Streptomyces scabies was overlaid on PDA and the plates were allowed to air dry. A 50 μL drop of Micrococcin P1 diluted in various concentrations were applied into agar well.

On to Micrococcin P1, for which the “minimal amount giving growth inhibition zones” value (per well, in 50 μL, PDA, 3 days 30° C.) is given as at least 31.25 ng. Besides, under “tested for biological activity”, the “antimicrobial activity of the standard” value is “showed antimicrobial activity against Streptomyces scabies”. Moreover, the “dose dependence of antibacterial activities” value (up to 5 mg/L (4.37 μM), highest concentration tested) is “increased proportional to the Micrococcin P1 concentrations”.
